Source: patent publication US11649227B2, “Allosteric chromenone inhibitors of phosphoinositide 3-kinase (PI3K) for the treatment of disease” (Petra Pharma Corporation, priority 2020, dated 2023)
pIC50: −log10 of the molar value.

The molecules below were run against human full length PIK3CA Wild-type (p110α/p85α complex) (Homo sapiens (Human), UniProt P42336) (assay: PI3K-Alpha kinase (PIK3CA) activity, wild-type, Transcreener ADP2 FI assay). Settings: PI3K-α (PIK3CA) wild-type, biochemical.
Description: (§1) PI3K-Alpha kinase (PIK3CA) activity, wild-type and H1047R mutant and determining IC50 values for inhibitors
(§2) Recombinant, catalytically active human full length PIK3KA Wild-type and H1047R mutant were purchased as 1:1 complex of N-terminal 6×his tagged p110<(catalytic) and untagged p85<(regulatory subunit) from EMD Millipore Sigma (cat. no. 14-602M and 14-792M, respectively). The enzyme stocks were diluted to 5× stocks in buffer (20 mM HEPES pH 7.4, 100 mM NaCl, 0.5 mM EGTA, 0.01% triton-x-100) just before use. PIP2diC8 (Avanti Polar Lipids Inc., cat. no. 850185) or phosphoinositol-4,5-bisphosphate with phosphoserine (PIP2:PS) membrane (Thermo Fisher Scientific, cat. no. PV5100) was used as lipid substrates. PIP2diC8 lyophilized powder and PIP2:PS (1:19) membrane stock (1 mM in PIP2) were separately dissolved in milliQ water to a concentration of 250 uM and stored in −20° C. 10 mM stocks of compounds were serially diluted (3×) in neat DMSO and stored in a dessicator at room temperature. 5× compound stocks in 25% DMSO were prepared fresh from neat DMSO stocks. Wild-type (WT) and H1047R mutant protein, along with buffer components (except ATP), were incubated with or without compound at 27° C. for 1h. After incubation, the reaction was initiated by the addition of 5 uL of 125 uM ATP. A typical assay mixture (25 uL) comprised 40 mM HEPES buffer, pH 7.4, 25 mM MgCl2, 0.01% v/v triton-X-100, 5% v/v DMSO, 20 mM NaCl, 1-5 nM wt or H1047R, 25 uM ATP, and 50 uM PTP2diC8 or PTP2 in membrane. The reaction was allowed to proceed until about […] (2.5 uM ADP) after which time, 10 uL of reaction mixture was quenched with 25 uL of transcreener reagent (Transcreener ADP2 FI assay kit, BellBrook labs, Cat. No. 3013). The contents were incubated at rt for 1h and fluorescence was measured using a plate reader (Paradigm, Molecular Devices). The same assay was also run at pH 6.0 or 6.4 using MOPS buffer (Fisher BioReagents, CAS 1132-61-2). A calibration curve was generated under identical buffer conditions with varying ADP amounts. Using that, the observed fluorescence was converted to uM ADP. A plot between [ADP] and log[I] yielded the dose-response curves that enabled the calculation of IC50s.

Sequence of human full length PIK3CA Wild-type (p110α/p85α complex) (P42336 whole entry): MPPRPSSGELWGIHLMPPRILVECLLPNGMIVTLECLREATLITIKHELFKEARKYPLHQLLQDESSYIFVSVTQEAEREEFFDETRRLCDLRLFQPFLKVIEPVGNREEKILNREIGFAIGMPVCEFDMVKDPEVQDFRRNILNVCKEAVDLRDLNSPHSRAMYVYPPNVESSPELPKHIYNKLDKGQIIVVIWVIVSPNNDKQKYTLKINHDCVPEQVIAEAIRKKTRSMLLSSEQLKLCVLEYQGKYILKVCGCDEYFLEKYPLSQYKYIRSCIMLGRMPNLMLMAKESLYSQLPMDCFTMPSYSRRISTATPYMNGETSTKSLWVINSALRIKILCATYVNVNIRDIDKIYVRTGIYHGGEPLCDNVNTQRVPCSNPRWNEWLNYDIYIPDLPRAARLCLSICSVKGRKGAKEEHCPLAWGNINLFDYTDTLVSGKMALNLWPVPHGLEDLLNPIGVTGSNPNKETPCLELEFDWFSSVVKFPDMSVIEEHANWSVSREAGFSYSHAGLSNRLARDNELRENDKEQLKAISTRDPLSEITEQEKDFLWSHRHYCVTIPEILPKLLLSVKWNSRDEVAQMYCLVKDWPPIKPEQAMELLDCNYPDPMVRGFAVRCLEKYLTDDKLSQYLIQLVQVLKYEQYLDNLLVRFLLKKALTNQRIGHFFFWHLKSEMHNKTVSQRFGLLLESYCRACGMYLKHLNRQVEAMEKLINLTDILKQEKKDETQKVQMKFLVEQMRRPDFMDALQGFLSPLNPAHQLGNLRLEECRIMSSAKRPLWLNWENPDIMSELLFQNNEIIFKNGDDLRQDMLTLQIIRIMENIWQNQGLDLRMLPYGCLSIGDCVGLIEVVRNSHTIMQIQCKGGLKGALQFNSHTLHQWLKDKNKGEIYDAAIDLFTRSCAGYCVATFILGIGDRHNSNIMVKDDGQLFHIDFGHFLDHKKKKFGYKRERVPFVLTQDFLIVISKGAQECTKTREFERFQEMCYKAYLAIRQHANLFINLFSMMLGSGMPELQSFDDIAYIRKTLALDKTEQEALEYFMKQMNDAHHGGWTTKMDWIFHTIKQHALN
Sequence of human full length PIK3CA Wild-type (p110α/p85α complex) (P27986 whole entry partner): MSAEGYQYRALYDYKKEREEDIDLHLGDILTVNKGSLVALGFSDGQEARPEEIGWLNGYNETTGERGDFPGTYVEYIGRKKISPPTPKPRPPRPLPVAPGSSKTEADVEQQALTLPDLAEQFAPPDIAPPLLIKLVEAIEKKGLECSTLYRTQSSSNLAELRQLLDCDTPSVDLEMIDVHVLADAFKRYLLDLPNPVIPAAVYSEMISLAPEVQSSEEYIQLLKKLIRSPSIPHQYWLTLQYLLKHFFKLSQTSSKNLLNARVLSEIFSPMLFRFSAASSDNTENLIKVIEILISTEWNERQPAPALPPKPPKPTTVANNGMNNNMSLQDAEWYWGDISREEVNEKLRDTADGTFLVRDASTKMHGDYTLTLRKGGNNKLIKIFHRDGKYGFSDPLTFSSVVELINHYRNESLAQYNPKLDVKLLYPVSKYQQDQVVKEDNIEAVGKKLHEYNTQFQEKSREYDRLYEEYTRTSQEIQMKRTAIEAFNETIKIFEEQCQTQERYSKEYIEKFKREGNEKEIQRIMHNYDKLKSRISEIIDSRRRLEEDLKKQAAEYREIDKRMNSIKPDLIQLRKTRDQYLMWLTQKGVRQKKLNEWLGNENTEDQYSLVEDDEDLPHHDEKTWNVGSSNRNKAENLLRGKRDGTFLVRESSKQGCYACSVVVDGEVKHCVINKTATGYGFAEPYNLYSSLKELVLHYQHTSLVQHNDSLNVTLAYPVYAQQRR

pIC50 | SMILES
5.30 to 6.00 | Cc1cc(C(C)Nc2ccccc2C(=O)O)c2oc(N3CCC(C)(C)CC3)c(C3CC3)c(=O)c2c1 (single isomer, unassigned) [Example 51, 2-[1-[3-Cyclopropyl-2-(4,4-dimethyl-1-piperidyl)-6-methyl-4-oxo-chromen-8-yl]ethyalmino]benzoic acid]
5.30 to 6.00 | CCc1c(N2CCC(C)(C)CC2)oc2c(C(C)Nc3ccccc3C(=O)O)cc(C)cc2c1=O (stereo not drawn) [Example 55, 2-[1-[2-(4,4-dimethyl-1-piperidyl)-3-ethyl-6-methyl-4-oxo-chromen-8-yl]ethylamino]benzoic acid]
5.00 to 5.30 | Cc1cc(C(C)Nc2ccccc2C(=O)O)c2oc(N3CCCC(C)(C)C3)cc(=O)c2c1 (stereo not drawn) [Example 65, 2-[1-[2-(3,3-Dimethyl-1-piperidyl)-6-methyl-4-oxo-chromen-8-yl]ethylamino]benzoic acid]
5.00 to 5.30 | Cc1cc(C(C)Nc2ccccc2C(=O)O)c2oc(N3CC4(CCCCC4)C3)cc(=O)c2c1 (stereo not drawn) [Example 88, 2-[1-[2-(2-Azaspiro[3.5]nonan-2-yl)-6-methyl-4-oxo-chromen-8-yl]ethylamino]benzoic acid]
5.00 to 5.30 | Cc1cc(C(C)Nc2ccccc2C(=O)O)c2oc(N3Cc4ccc(F)cc4C3)cc(=O)c2c1 (stereo not drawn) [Example 105, 2-[1-[2-(5-Fluoroisoindolin-2-yl)-6-methyl-4-oxo-chromen-8-yl]ethylamino]benzoic acid]
6.00 to 6.30 | Cc1cc(C(C)Nc2ccccc2C(=O)O)c2oc(N3CCn4cccc4C3)cc(=O)c2c1 (stereo not drawn) [Example 171, 2-[1-[2-(3,4-Dihydro-1H-pyrrolo[1,2-a]pyrazin-2-yl)-6-methyl-4-oxo-chromen-8-yl]ethylamino]benzoic acid]
5.30 to 6.00 | Cc1cc(C(C)Nc2ccccc2C(=O)O)c2oc(N3CC(C(C)(F)F)C3)cc(=O)c2c1 (stereo not drawn) [Example 189, 2-[1-[2-[3-(1,1-Difluoroethyl)azetidin-l-yl]-6-methyl-4-oxo-chromen-8-yl]ethylamino]benzoic acid 2,2,2-trifluoroacetic acid]
5.30 to 6.00 | Cc1cc(C(C)Nc2ccccc2C(=O)O)c2oc(N3CCc4ccccc4C3)cc(=O)c2c1 (stereo not drawn) [Example 233, 2-[1-[2-(3,4-Dihydro-1H-isoquinolin-2-yl)-6-methyl-4-oxo-chromen-8-yl]ethylamino]benzoic acid]
6.00 to 6.30 | Cc1cc(C(C)Nc2sc(Cl)nc2C(=O)O)c2oc(N3Cc4ccccc4C3)cc(=O)c2c1 (stereo not drawn) [Example 245, 2-Chloro-5-[1-(2-isoindolin-2-yl-6-methyl-4-oxo-chromen-8-yl)ethylamino]thiazole-4-carboxylic acid 2,2,2-trifluoroacetic acid]
6.00 to 6.30 | Cc1cc([C@@H](C)Nc2ccccc2C(=O)O)c2oc(N3CCC(C#N)(c4ccccc4)CC3)c(C)c(=O)c2c1 [Example 288, 2-[[(1R)-1-[2-(4-Cyano-4-phenyl-1-piperidyl)-3,6-dimethyl-4-oxo-chromen-8-yl]ethyl]amino]benzoic acid]
6.00 to 6.30 | Cc1cc([C@@H](C)Nc2ccccc2C(=O)O)c2oc(N3CC4(CCC4(F)F)C3)c(C)c(=O)c2c1 [Example 289, 2-[[(1R)-1-[2-(7,7-Difluoro-2-azaspiro[3.3]heptan-2-yl)-3,6-dimethyl-4-oxo-chromen-8-yl]ethyl]amino]benzoic acid]
5.30 to 6.00 | Cc1cc(C(C)Nc2ccc(Cl)nc2C(=O)O)c2oc(N3Cc4ccc(F)cc4C3)cc(=O)c2c1 (stereo not drawn) [Example 297, 6-Chloro-3-[1-[2-(5-fluoroisoindolin-2-yl)-6-methyl-4-oxo-chromen-8-yl]ethylamino]pyridine-2-carboxylic acid]
6.00 to 6.30 | Cc1cc(C(C)Nc2ccc(Cl)nc2C(=O)O)c2oc(N3Cc4ccc5c(c4C3)OCO5)cc(=O)c2c1 (stereo not drawn) [Example 299, 6-Chloro-3-[1-[2-(6,8-dihydro-[1,3]dioxolo[4,5-e]isoindol-7-yl)-6-methyl-4-oxo-chromen-8-yl]ethylamino]pyridine-2-carboxylic acid]
6.00 to 6.30 | Cc1cc(C(C)Nc2ccc(Cl)nc2C(=O)O)c2oc(N3CCC4(CC3)CC4)c(C)c(=O)c2c1 (stereo not drawn) [Example 302, 3-[1-[2-(6-Azaspiro[2.5]octan-6-yl)-3,6-dimethyl-4-oxo-chromen-8-yl]ethylamino]-6-chloro-pyridine-2-carboxylic acid]
5.30 to 6.00 | CC(Nc1ccccc1C(=O)O)c1cc(C(F)(F)F)cc2c(=O)cc(N3CCC(F)(F)CC3)oc12 (stereo not drawn) [Example 396, 2-[1-[2-(4,4-Difluoro-1-piperidyl)-4-oxo-6-(trifluoromethyl)chromen-8-yl]ethylamino]benzoic acid 2,2,2-trifluoroacetic acid]
5.30 to 6.00 | CC(Nc1ccccc1C(=O)O)c1cc(F)cc2c(=O)cc(N3CCC4(CC3)CC4)oc12 (stereo not drawn) [Example 398, 2-[1-[2-(6-Azaspiro[2.5]octan-6-yl)-6-fluoro-4-oxo-chromen-8-yl]ethylamino]benzoic acid 2,2,2-trifluoroacetic acid]
5.30 to 6.00 | CC(Nc1ccccc1C(=O)O)c1cc(F)cc2c(=O)cc(N3CCC(F)(F)CC3)oc12 (stereo not drawn) [Example 399]

SMILES | pIC50
Cc1cc(C(C)Nc2ccccc2C(=O)O)c2oc(N3CC4CC(C4)C3)cc(=O)c2c1 (stereo not drawn) [Example 177, 2-[1-[2-(3-Azabicyclo[3.1.1]heptan-3-yl)-6-methyl-4-oxo-chromen-8-yl]ethylamino]benzoic acid 2,2,2-trifluoroacetic acid] | 5.30 to 6.00

Each molecule was assayed against human full length PIK3CA H1047R mutant (p110α/p85α complex) (Homo sapiens (Human), UniProt P42336, H1047R) (assay: PI3K-Alpha kinase (PIK3CA) activity, H1047R mutant, Transcreener ADP2 FI assay). Settings: PI3K-α (PIK3CA) H1047R mutant, biochemical.
Description: as §1, §2

Sequence of human full length PIK3CA H1047R mutant (p110α/p85α complex) (P42336 whole entry H1047R): as the sequence (P42336 whole entry) above, with H1047R counted along it
Sequence of human full length PIK3CA H1047R mutant (p110α/p85α complex) (P27986 whole entry partner): as the sequence (P27986 whole entry partner) above

pIC50 | SMILES
> 6.30 | Cc1cc(C(C)Nc2ccccc2C(=O)O)c2oc(N3CCC(C)(C)CC3)c(C3CC3)c(=O)c2c1 (single isomer, unassigned) [Example 51, 2-[1-[3-Cyclopropyl-2-(4,4-dimethyl-1-piperidyl)-6-methyl-4-oxo-chromen-8-yl]ethyalmino]benzoic acid]
5.30 to 6.00 | Cc1cc(C(C)Nc2ccsc2C(=O)O)c2oc(N3CCC(C)(C)CC3)cc(=O)c2c1 (stereo not drawn) [Example 39, 3-[1-[2-(4,4-Dimethyl-1-piperidyl)-6-methyl-4-oxo-chromen-8-yl]ethylamino]thiophene-2-carboxylic acid]
5.30 to 6.00 | Cc1cc(C(C)Nc2ccccc2C(=O)O)c2oc(N3CCCC4(CNC(=O)C4)C3)cc(=O)c2c1 (stereo not drawn) [Example 61, 2-[1-[6-Methyl-4-oxo-2-(3-oxo-2,7-diazaspiro[4.5]decan-7-yl)chromen-8-yl]ethylamino]benzoic acid]
5.30 to 6.00 | Cc1cc(C(C)Nc2ccccc2C(=O)O)c2oc(N3CC(N(C)C)C3)cc(=O)c2c1 (stereo not drawn) [Example 68, 2-[1-[2-[3-(Dimethylamino)azetidin-1-yl]-6-methyl-4-oxo-chromen-8-yl]ethylamino]benzoic acid]
5.30 to 6.00 | Cc1cc(C(C)Nc2ccccc2C(=O)O)c2oc(N3CC4CCC(C3)O4)cc(=O)c2c1 (stereo not drawn) [Example 82, 2-[1-[6-Methyl-2-(8-oxa-3-azabicyclo[3.2.1]octan-3-yl)-4-oxo-chromen-8-yl]ethylamino]benzoic acid]
5.30 to 6.00 | Cc1cc(C(C)Nc2ccccc2C(=O)O)c2oc(N3CCS(=O)(=O)CC3)cc(=O)c2c1 (stereo not drawn) [Example 117, 2-[1-[2-(1,1-Dioxo-1,4-thiazinan-4-yl)-6-methyl-4-oxo-chromen-8-yl]ethylamino]benzoic acid]
5.30 to 6.00 | Cc1cc(C(C)Nc2ccccc2C(=O)O)c2oc(N3CCn4cnnc4C3)cc(=O)c2c1 (stereo not drawn) [Example 163, 2-[1-[2-(6,8-Dihydro-5H-[1,2,4]triazolo[4,3-a]pyrazin-7-yl)-6-methyl-4-oxo-chromen-8-yl]ethylamino]benzoic acid]
5.30 to 6.00 | Cc1cc(C(C)Nc2ccccc2C(=O)O)c2oc(NC34CC5CC(CC(CO)(C5)C3)C4)cc(=O)c2c1 (stereo not drawn) [Example 169]
5.00 to 5.30 | COc1ccc(NC(C)c2cc(C)cc3c(=O)cc(N4Cc5ccccc5C4)oc23)c(C(=O)O)n1 (stereo not drawn) [Example 237, 3-[1-(2-Isoindolin-2-yl-6-methyl-4-oxo-chromen-8-yl)ethylamino]-6-methoxy-pyridine-2-carboxylic acid]
5.30 to 6.00 | Cc1cc(C(C)Nc2cccc(F)c2C(=O)O)c2oc(N3Cc4ccc(F)cc4C3)cc(=O)c2c1 (stereo not drawn) [Example 238, 2-Fluoro-6-[1-[2-(5-fluoroisoindolin-2-yl)-6-methyl-4-oxo-chromen-8-yl]ethylamino]benzoic acid]
5.30 to 6.00 | CNC(=O)C1CCN(c2cc(=O)c3cc(C)cc(C(C)Nc4ccccc4C(=O)O)c3o2)CC1 (stereo not drawn) [Example 371, 2-[1-[6-Methyl-2-[4-(methylcarbamoyl)-1-piperidyl]-4-oxo-chromen-8-yl]ethylamino]benzoic acid]
6.00 to 6.30 | COC1CCN(c2cc(=O)c3cc(C)cc(C(C)Nc4ccccc4C(=O)O)c3o2)CC1 (stereo not drawn) [Example 373, 2-[1-[2-(4-Methoxy-1-piperidyl)-6-methyl-4-oxo-chromen-8-yl]ethylamino]benzoic acid]
